Source: BigSolDB 2.1

CC1(C)CCC2=C(O1)c1ccccc1C(=O)C2=O
solubility (mole fraction)
Settings | 298.15 K | 303.15 K | 308.15 K | 313.15 K | 318.15 K
in acetone | 0.0205 | 0.0216 | 0.0245 | 0.0296 | 0.0342
in acetonitrile | 0.018 | 0.0209 | 0.0227 | 0.0269 | 0.0325
in ethanol | 0.00499 | 0.00595 | 0.00664 | 0.00909 | 0.0134
in ethyl acetate | 0.00853 | 0.00936 | 0.0104 | 0.0121 | 0.0165
in isopropanol | 0.00376 | 0.00432 | 0.00528 | 0.00754 | 0.0111
in methanol | 0.0054 | 0.00654 | 0.0076 | 0.0101 | 0.0153
in n-butanol | 0.00743 | 0.00895 | 0.0108 | 0.0142 | 0.0203
in n-propanol | 0.00669 | 0.00793 | 0.00969 | 0.0146 | 0.0203
in propylene glycol | 0.00306 | 0.00308 | 0.0037 | 0.00531 | 0.00724
in sec-butanol | 0.00565 | 0.00671 | 0.0079 | 0.0104 | 0.0162
in water | 2.85e-06 | 3.72e-06 | 4.46e-06 | 5.26e-06 | 6.12e-06
